US5447934A, “Anti-allergic thiadiazolo [4,3-a]pyridine derivatives” (Boehringer Mannheim GmbH, priority 1991, dated 1995)

Tested on: passive sensitised guinea pig lung parenchyma strips
Experiment: Inhibition of the antigen-caused constriction of passive sensitised guinea pig lung parenchyma strips in vitro (organ bath)
Format: cell-based
Conditions: Cavia porcellus, 20 min, ovalbumin 0.1 μg/ml, 20 min/37°C. preincubation, read-out: % Inhibition of the constriction of passive-sensitised lung parenchyms strips (guinea pigs) induced by ovalbumin; for inhibition at 10 µg/mL: 10 μg/ml substance
Protocol: Inhibition of the antigen-caused construction of passive sensitised guinea pig lung parenchyma strips in vitro (organ bath)
For the in vitro investigation of the compounds according to the invention, the inhibition of the antigen-caused constriction of passive sensitised guinea pig lung parenchyma strips was measured, as described in the following:
Pirbright white guinea pigs were stunned by a blow to the nape of the neck and exsanguinated. The lungs were rinsed substantially blood-free in situ with Krebs buffer, pH 7.4. Subsequently, the lungs were removed, cut up into strips (about […]) and the strips passively sensitised for one hour at room temperature with a 1.:50 dilution of a homologous anti-ovalbumin antiserum and then washed with Krebs buffer 1 x. The antiserum had been previously produced according to DAVIES (1) in guinea pigs of the same strain by repeated injection of ovalbumin (2 x crystallised) with addition of complete Freund's adjuvant. Until its used the antiserum was stored undiluted at -18° C. Subsequently, the lung strips were individually suspended on an isometric measurement sensor in 10 ml waterbaths with an initial tension of 1.2 g. Thereafter, the baths were filled with Krebs buffer and continuously gassed at 37° C. with O2 (95%) and CO2 (5%). Via an amplifier the constrictions of the lung strips were recorded on a recorder. After 30 minutes acclimatisation phase, histamine control spasms were produced for the recognition of the reactivity of the organ pieces washed, subsequently the best substance preincubated 37° C. for 20 minutes and thereafter the ovalbumin-caused constriction initiated. The inhibition action of the compounds according to the invention was expressed as percentage reduction of the constriction amplitude of the "samples with best substance" in relation to the "untreated control constrictions".

SMILES | inhibition at 10 µg/mL [%] | inhibition at 200 µg/mL (200 μg/ml substance (footnote +)) [%]
c1ccc(N=c2snc3ccccn23)nc1 [Example 2a, 3-(2-pyridinylimino)-3H-[1,2,4]-thiadiazolo [4,3-a]-pyridine] | 56 | –
Cn1c(=O)c2[nH]cnc2n(C)c1=O [aminophylline, reference compound] | – | 26
c1ccn2c(=Nc3ccc4c(c3)OCO4)snc2c1 [Example 2q, 3-(3,4-methylenedioxyphenyl-imino)-3H-[1,2,4]-thiadia-zolo [4,3-a]-pyridine] | 57 | –
COc1ccc(N=c2snc3ccccn23)cc1 [Example 2e, 3-(4-methoxyphenylimino)-3H-[1,2,4]-thiadiazolo-[4,3-a]pyridine] | 48 | –
Clc1ccc2nsc(=Nc3ccncc3)n2c1 [Example 4] | 61 | –
Cc1cc(O)ccc1N=c1snc2ccccn12 [Example 2p, 3-(4-hydroxy-2-methyl-phenylimino)-3H-[1,2,4]-thiadiazolo [4,3-a]-pyridine] | 62 | –
c1ccn2c(=Nc3ccncc3)snc2c1 [Example 2b, 3-(4-pyridinylimino)-3H-[1,2,4]-thiadiazolo [4,3-a]-pyridine] | 80 | –
c1ccn2c(=NC3=NCCS3)snc2c1 [Example 2u, 3-(4,5-dihydrothiazol-2-ylimino)-3H-[1,2,4]-thia-diazolo [4,3-a]pyridine] | 78 | –
CN(O)C(=O)Cc1ccc(N=c2snc3ccccn23)cc1 [Example 9, 4-(3H-[1,2,4]-Thiadiazole[4,3-a]-pyridin-3-ylideneamino)-phenylacetic acid N-methylhydroxamide] | 61 | –
